According to US12509653B2, “Organ chip to model mammalian joint” (University of Pittsburgh—Of the Commonwealth System of …, priority 2017, dated 2025):

Experiments:
[1] = test system: chondrocytes and osteoblasts in the bioreactor; assay: RT-PCR marker expression in cartilage and bone chambers of the bioreactor under hormone stimulation; assay type: cell-based; conditions: progesterone progressively added to estradiol (week 3 and 4); higher when hormones directly applied to cartilage
Protocol: Differential expression of markers (as determined by RT-PCR) was evaluated in a control medium that contained no estrogen or progesterone (first bar), and then different concentrations of hormones supplied to the chambers during week 1 (w1: 0.1 nM estradiol), week 2 (w2: 1 nM estradiol), week 3 (w3: 1 nM estradiol and 10 nM progesterone), and week 4 (w4: 0.1 nM estradiol and 50 nM progesterone). Differential expression of markers was determined in a control medium that contained no estrogen or progesterone (first bar), and then different concentrations of hormones supplied to the cartilage chamber during week 1 (w1: 0.1 nM estradiol), week 2 (w2: 1 nM estradiol), week 3 (w3: 1 nM estradiol and 10 nM progesterone), and week 4 (w4: 0.1 nM estradiol and 50 nM progesterone).

synovial cells (SM) = assay: IL-1β stimulation of synovial cells in the microJoint (OA model), gene expression; assay type: cell-based, human; conditions: 10 ng/mL, 24 h
Protocol: To model OA in the microJoint, the pro-inflammatory cytokine interleukin (IL)-1β (10 ng/mL) was used to stimulate synovial cells for 24 h. Afterwards, IL-1β was withdrawn and inflamed synovium-conditioned medium was perfused through cartilage and FP tissues. […] M0/M1 macrophages can be introduced into the different tissues to investigate their interactions with other cells and implications on OA pathologies.
Different engineered joint tissues, including osteochondral complex (bone and cartilage), synovium, and fat pad were prepared as modules for convenient integration in the bioreactor. After maturation, they were integrated into a bioreactor (FIG. 28). Their interconnection was guided via directional fluidic flow of the culture medium to simulate in vivo physiology (FIG. 29). The bioreactors and accessories were manufactured by 3D printing. Micro-tissues were engineered by encapsulating P5 human MSCs in UV-photocrosslinked 15% methacrylated gelatin (GelMA), and differentiating and maturing them in different types of induction media. The health of individual tissues was assessed by real-time polymerase chain reaction (RT-PCR), histology and enzyme-linked immunosorbent assay (ELISA).

Compound | cartilage anabolic markers, progesterone added [1] | expression levels of major catabolic genes in SM (synovial cells (SM))
CC(=O)[C@H]1CC[C@H]2[C@@H]3CCC4=CC(=O)CC[C@]4(C)[C@H]3CC[C@]12C [progesterone] | downregulation is still present | –
IL-1β: pro-inflammatory cytokine interleukin (IL)-1β used to stimulate synovial cells | – | significantly upregulated
